The numbers were not newly measured in patent publication US7045323B2 (priority 1999, dated 2006), which cites them from elsewhere.

Each structure is given as a SMILES string.

The test system of series [1] is HIV reverse transcription process.
Another series concerns proviral DNA load. The following applies: murine model of immunodeficiency; first stage of infection.

On to `CC(=O)N[C@@H](CS)C(=O)O` [N-acetylcysteine], for which the “inhibition of the HIV reverse transcription process” value in series [1] is recorded as “can inhibit”.

On to `N[C@@H](CCC(=O)N[C@@H](CS)C(=O)NCC(=O)O)C(=O)O` [GSH, glutathione], for which the “inhibition of the HIV reverse transcription process” value in series [1] is given as “can inhibit”. Besides, the “proviral DNA load” value in the series with proviral DNA load is “able to decrease the proviral DNA load”.
